System: participants with SSc-RP
Experiment: Average severity of weekly RP attacks (VAS 0-10)
Assay type: in vivo, human
Details: Tadalafil 5 mg; for Average Severity of Weekly Symptomatic RP Attacks, Change from Baseline, Mean / Average Severity of Weekly Symptomatic RP Attacks, Change from Baseline, Median / Average Severity of Weekly Symptomatic RP Attacks, Percent Change from Baseline, Mean / Average Severity of Weekly Symptomatic RP Attacks, Percent Change from Baseline, Median: 2nd Baseline RCS subgroup, ITT Part A, last 7 days of dosing period
Text: The absolute change in average severity of weekly RP attacks (VAS 0-10 cm scale) from baseline to the end of each Dosing Period was and will be a secondary outcome variable. The sponsor-developed participant-informed diary will be used to record data. Average severity of weekly RP attacks is defined as the total severity scores of RP attacks divided by total number of RP attacks within the last 7 days of each dosing period. Total severity scores of RP attacks during the last 7 days of screening period divided by the total number of RP attacks will be used as baseline for the analysis of all periods. The variable will be calculated similar to frequency data as before.

[1] = all attacks, by Baseline RCS: second subgroup of Table C-7, ITT Part A

## CN1CC(=O)N2[C@H](c3ccc4c(c3)OCO4)c3[nH]c4ccccc4c3C[C@@H]2C1=O [Tadalafil]
  Average Severity of Weekly Symptomatic RP Attacks, Change from Baseline, Mean: −0.60
  Average Severity of Weekly Symptomatic RP Attacks, Change from Baseline, Median: −0.60
  Average Severity of Weekly Symptomatic RP Attacks, Percent Change from Baseline, Mean: −10.43%
  Average Severity of Weekly Symptomatic RP Attacks, Percent Change from Baseline, Median: −10.43%
Excluding Outliers
  Average Severity of Weekly Symptomatic RP Attacks, Change from Baseline, Mean: −1.32
  Average Severity of Weekly Symptomatic RP Attacks, Change from Baseline, Median: −1.32
  Average Severity of Weekly Symptomatic RP Attacks, Percent Change from Baseline, Mean: −22.01%
  Average Severity of Weekly Symptomatic RP Attacks, Percent Change from Baseline, Median: −22.01%
[1]
  Average Severity (0-10) of weekly RP attacks, Mean: 7.02
  Average Severity (0-10) of weekly RP attacks, Median: 7.02
  Average severity of weekly RP attacks, Change from Baseline, Mean: −0.47
  Average severity of weekly RP attacks, Change from Baseline, Median: −0.47
  Average severity of weekly RP attacks, Percent Change from Baseline, Mean: −8.97%
  Average severity of weekly RP attacks, Percent Change from Baseline, Median: −8.97%

Reference: patent US20240358692A1, “TREATMENT OF SCLERODERMA” (Aisa Pharma, Inc., priority 2023, published 2024)
